Converted amounts (≈) assume the structure as drawn. “Also recorded” adds a separate entry of the source. Read-outs that look alike come from different tables or passages of the source. Residues, ends and D or L forms follow the SMILES beside them. No end group written: not given here.
Columns and labels:
[1] = system: human red blood cells (hRBCs); conditions: human RBCs
[2] = system: Toll-like receptor 3 (TLR3); assay: IL-6 ELISA, TLR3 signaling with poly(I:C) in BEAS-2B cells; assay type: cell-based, human
Method: Innate immune signaling by endogenous Toll-like receptor 3 (TLR3) in BEAS-2B cells in response to double-stranded RNA and various bacteriocidal peptides. IL-6 cytokine produced in response to signal transduction by TLR3 and the double-stranded RNA mimic, poly(I:C), was quantified using ELISA. Where present, the peptides were added to the media of BEAS-2B cells to a final concentration of 2 μM. […] All assays were performed in three independent samples and the mean and one standard error is shown above the bars.

[3] = system: 19 selected strains of Gram-negative bacteria; assay type: cell-based; conditions: for antibacterial / bacteriocidal activity (in words): 19 Gram-negative strains; for number of the 19 Gram-negative strains inhibited: peptide at 16 μg/ml (~4 μM)
Excerpt: FIG. 3. […] FIG. 3A. […] FIG. 3B. […] FIG. 3C. […] FIG. 3D. […] FIG. 3F.

## GLRKKFRETRKEIQKLGRKIGKTGRKVWKAWREYGQIPYPCRI [CAP-11V2]
E. faecalis
  MIC: >32 µg/mL
S. aureus; S. aureus 25923
  MIC: >32 µg/mL
S. aureus; S. aureus 29213
  MIC: >32 µg/mL

## CC[C@H](C)[C@H](NC(=O)[C@H](CCCCN)NC(=O)[C@H](CCC(=O)O)NC(=O)[C@H](CCCCN)NC(=O)[C@H](CO)NC(=O)[C@H](CCCCN)NC(=O)[C@H](CCCNC(=N)N)NC(=O)[C@H](Cc1ccccc1)NC(=O)[C@H](Cc1ccccc1)NC(=O)[C@H](CC(=O)O)NC(=O)CNC(=O)[C@H](CC(C)C)NC(=O)[C@@H](N)CC(C)C)C(=O)NCC(=O)N[C@@H](CCCCN)C(=O)N[C@@H](CCC(=O)O)C(=O)N[C@@H](Cc1ccccc1)C(=O)N[C@@H](CCCCN)C(=O)N[C@@H](CCCNC(=N)N)C(=O)N[C@H](C(=O)N[C@H](C(=O)N[C@@H](CCC(N)=O)C(=O)N[C@@H](CCCNC(=N)N)C(=O)N[C@H](C(=O)N[C@@H](CCCCN)C(=O)N[C@@H](CC(=O)O)C(=O)N[C@@H](Cc1ccccc1)C(=O)N[C@@H](CC(C)C)C(=O)N[C@@H](CCCNC(=N)N)C(=O)N[C@@H](CC(N)=O)C(=O)N[C@@H](CC(C)C)C(=O)N[C@H](C(=O)N1CCC[C@H]1C(=O)N[C@@H](CCCNC(=N)N)C(=O)N[C@H](C(=O)N[C@@H](CCC(=O)O)C(=O)N[C@@H](CO)C(=O)O)[C@@H](C)O)C(C)C)[C@@H](C)CC)C(C)C)[C@@H](C)CC [LL-37]
[1]
  RBC lysis (in words): RBC lysis in a concentration-dependent manner

## CC[C@H](C)[C@H](NC(=O)[C@H](CCCCN)NC(=O)[C@H](CCCNC(=N)N)NC(=O)CNC(=O)[C@H](CC(C)C)NC(=O)[C@H](CCCCN)NC(=O)[C@H](CCC(N)=O)NC(=O)[C@@H](NC(=O)[C@H](CCCNC(=N)N)NC(=O)[C@H](CCCCN)NC(=O)[C@H](CCCNC(=N)N)NC(=O)[C@@H](NC(=O)[C@H](CCCCN)NC(=O)[C@H](CCCNC(=N)N)NC(=O)[C@H](Cc1ccccc1)NC(=O)[C@H](CCCCN)NC(=O)[C@H](CCCCN)NC(=O)[C@H](CCCNC(=N)N)NC(=O)[C@H](CC(C)C)NC(=O)CN)[C@@H](C)O)[C@@H](C)CC)C(=O)NCC(=O)N[C@@H](CCCCN)C(=O)N[C@H](C(=O)NCC(=O)N[C@@H](CCCNC(=N)N)C(=O)N[C@@H](CCCCN)C(=O)N[C@H](C(=O)N[C@@H](Cc1c[nH]c2ccccc12)C(=O)N[C@@H](CCCCN)C(=O)N[C@@H](C)C(=O)N[C@@H](Cc1c[nH]c2ccccc12)C(=O)N[C@@H](CCCNC(=N)N)C(=O)N[C@@H](CCC(=O)O)C(=O)N[C@@H](Cc1ccc(O)cc1)C(=O)O)C(C)C)[C@@H](C)O [CAP-11V1] (H-GLRKKFRKTRKRIQKLGRKIGKTGRKVWKAWREY-OH)
E. faecalis
  MIC: >32 µg/mL
S. aureus; S. aureus 25923
  MIC: 32 µg/mL (≈ 7.51 µM)
S. aureus; S. aureus 29213
  MIC: 32 µg/mL (≈ 7.51 µM)
[1]
  RBC lysis (in words): decreased RBC lysis; also recorded: did not result in increased lysis of human RBCs

## PMAP-37: SEQ ID NO: 8, pig cathelicidin, GLLSRLRDFLSDRGRRLGEKIERIGQKIKDLSEFFQS (listed as Sus scrofa)
[2]
  enhancement of TLR3 signaling / IL-6 production (in words): more similar to CRAMP

## eCATH-3: SEQ ID NO: 9, horse cathelicidin, KRFHSVGSLIQRHQQMIRDKSEATRHGIRIITRPKLLLAS (listed as Equus caballus)
[3]
  antibacterial / bacteriocidal activity (in words): least effective
  number of the 19 Gram-negative strains inhibited: did not inhibit the growth of any
[2]
  enhancement of TLR3 signaling / IL-6 production (in words): more similar to CRAMP

## CC[C@H](C)[C@H](NC(=O)[C@@H](NC(=O)[C@@H]1CCCN1C(=O)[C@H](CO)NC(=O)[C@H](CC(C)C)NC(=O)[C@H](CCCCN)NC(=O)[C@H](CCCCN)NC(=O)[C@H](Cc1ccccc1)NC(=O)[C@H](CC(C)C)NC(=O)[C@H](CCCCN)NC(=O)[C@H](CCCCN)NC(=O)[C@H](Cc1ccccc1)NC(=O)[C@H](CCCCN)NC(=O)[C@H](CCCCN)NC(=O)[C@H](CCCNC(=N)N)NC(=O)[C@H](Cc1ccccc1)NC(=O)[C@H](CCCNC(=N)N)NC(=O)[C@H](CCCCN)NC(=O)[C@H](Cc1ccccc1)NC(=O)[C@H](CCCNC(=N)N)NC(=O)CN)C(C)C)C(=O)N1CCC[C@H]1C(=O)N[C@@H](CC(C)C)C(=O)N[C@@H](CC(C)C)C(=O)N[C@@H](Cc1c[nH]cn1)C(=O)N[C@@H](CC(C)C)C(=O)NCC(=O)O [BMAP-27] (H-GRFKRFRKKFKKLFKKLSPVIPLLHLG-OH; N-terminus and C-terminus assumed)
[3]
  antibacterial / bacteriocidal activity (in words): most potent antibacterial activities; also recorded: most effective
E. faecalis
  MIC: >32 µg/mL

## BMAP-34: SEQ ID NO: 7, cow cathelicidin, GLFRRLRDSIRRGQQKILEKARRIGERIKDIFRG (listed as Bos taurus)
[2]
  enhancement of TLR3 signaling / IL-6 production (in words): more similar to CRAMP

## RL-37: SEQ ID NO: 2, Rhesus monkey cathelicidin, RLGNFFRKVKEKIGGGLKKVGQKIKDFLGNLVPRTAS (listed as Macaca mulatta)
[2]
  enhancement of TLR3 signaling / IL-6 production (in words): retain partial enhancement of TLR3 signaling

## CC[C@H](C)[C@H](NC(=O)[C@H](CCCCN)NC(=O)[C@H](C)NC(=O)[C@H](CCCCN)NC(=O)[C@H](CO)NC(=O)[C@H](CCCCN)NC(=O)[C@H](CCCNC(=N)N)NC(=O)[C@H](Cc1ccccc1)NC(=O)[C@H](Cc1ccccc1)NC(=O)[C@H](C)NC(=O)CNC(=O)[C@H](CC(C)C)NC(=O)[C@@H](N)CC(C)C)C(=O)NCC(=O)N[C@@H](CCCCN)C(=O)N[C@@H](C)C(=O)N[C@@H](Cc1ccccc1)C(=O)N[C@@H](CCCCN)C(=O)N[C@@H](CCCNC(=N)N)C(=O)N[C@H](C(=O)N[C@H](C(=O)N[C@@H](CCC(N)=O)C(=O)N[C@@H](CCCNC(=N)N)C(=O)N[C@H](C(=O)N[C@@H](CCCCN)C(=O)N[C@@H](C)C(=O)N[C@@H](Cc1ccccc1)C(=O)N[C@@H](CC(C)C)C(=O)N[C@@H](CCCNC(=N)N)C(=O)O)[C@@H](C)CC)C(C)C)[C@@H](C)CC [LL-29V] (H-LLGAFFRKSKAKIGKAFKRIVQRIKAFLR-OH)
[1]
  RBC lysis (in words): comparable levels of RBC lysis as LL-29

## GLRKKFRKTRKRIQKLGRKIGKTGRKVWKAWREYGQIPYPCRI [CAP-11]
[3]
  antibacterial / bacteriocidal activity (in words): most potent antibacterial activities; also recorded: most effective
  number of the 19 Gram-negative strains inhibited: 16 strains
[2]
  enhancement of TLR3 signaling / IL-6 production (in words): retained reduced levels of activation of TLR3 in comparison to LL-37; also recorded: retain partial enhancement of TLR3 signaling
E. faecalis
  MIC: >32 µg/mL
S. aureus; S. aureus 25923
  MIC: 32 µg/mL
S. aureus; S. aureus 29213
  MIC: 32 µg/mL

## CC[C@H](C)[C@H](NC(=O)[C@H](CCCCN)NC(=O)[C@H](CCC(=O)O)NC(=O)[C@H](CCCCN)NC(=O)[C@H](CO)NC(=O)[C@H](CCCCN)NC(=O)[C@H](CCCNC(=N)N)NC(=O)[C@H](Cc1ccccc1)NC(=O)[C@H](Cc1ccccc1)NC(=O)[C@H](CC(=O)O)NC(=O)CNC(=O)[C@H](CC(C)C)NC(=O)[C@@H](N)CC(C)C)C(=O)NCC(=O)N[C@@H](CCCCN)C(=O)N[C@@H](CCC(=O)O)C(=O)N[C@@H](Cc1ccccc1)C(=O)N[C@@H](CCCCN)C(=O)N[C@@H](CCCNC(=N)N)C(=O)N[C@H](C(=O)N[C@H](C(=O)N[C@@H](CCC(N)=O)C(=O)N[C@@H](CCCNC(=N)N)C(=O)N[C@H](C(=O)N[C@@H](CCCCN)C(=O)N[C@@H](CC(=O)O)C(=O)N[C@@H](Cc1ccccc1)C(=O)N[C@@H](CC(C)C)C(=O)N[C@@H](CCCNC(=N)N)C(=O)O)[C@@H](C)CC)C(C)C)[C@@H](C)CC [LL-29] (H-LLGDFFRKSKEKIGKEFKRIVQRIKDFLR-OH)
[1]
  RBC lysis (in words): reduced in RBC lysis; also recorded: did not result in increased lysis of human RBCs

## CC[C@H](C)[C@H](NC(=O)[C@H](CCCCN)NC(=O)[C@H](CCC(=O)O)NC(=O)[C@H](CCCCN)NC(=O)[C@H](CO)NC(=O)[C@H](CCCCN)NC(=O)[C@H](CCCNC(=N)N)NC(=O)[C@H](Cc1ccccc1)NC(=O)[C@H](Cc1ccccc1)NC(=O)[C@H](C)NC(=O)CNC(=O)[C@H](CC(C)C)NC(=O)[C@@H](N)CC(C)C)C(=O)NCC(=O)N[C@@H](CCCCN)C(=O)N[C@@H](C)C(=O)N[C@@H](Cc1ccccc1)C(=O)N[C@@H](CCCCN)C(=O)N[C@@H](CCCNC(=N)N)C(=O)N[C@H](C(=O)N[C@H](C(=O)N[C@@H](CCC(N)=O)C(=O)N[C@@H](CCCNC(=N)N)C(=O)N[C@H](C(=O)N[C@@H](CCCCN)C(=O)N[C@@H](CC(=O)O)C(=O)N[C@@H](Cc1ccccc1)C(=O)N[C@@H](CC(C)C)C(=O)N[C@@H](CCCNC(=N)N)C(=O)O)[C@@H](C)CC)C(C)C)[C@@H](C)CC [LL-29V2] (H-LLGAFFRKSKEKIGKAFKRIVQRIKDFLR-OH)
[1]
  RBC lysis (in words): slightly increased RBC lysis

## GLRKKFRETRKEIQKLGEKIGKTGRKVWKDWREYGQIPYPCRI [CAP-11V3]
E. faecalis
  MIC: >32 µg/mL
S. aureus; S. aureus 25923
  MIC: >32 µg/mL
S. aureus; S. aureus 29213
  MIC: >32 µg/mL
